The values that follow come from patent publication US20070129367A1, “Pyridine derivatives as cb2 receptor modulators” (priority 2002, published 2007).

Where two headings read alike, the source gives them in different places.

This test addresses T1, human cannabinoid CB2 receptor (Homo sapiens, UniProt P34972).
T1 construct: expressed in transfected cells; host or cells: Saccharomyces cerevisiae strain MMY23 (cassette integrated at the ura3 locus, GPD promoter)
Nature of the test: Cannabinoid CB2 receptor agonist activity in yeast (Saccharomyces cerevisiae) cells expressing the receptor, FDGlu fluorescence readout. It counts as cell-based. Particulars: for Emax: read-out: efficacy (Emax) at the cloned human cannabinoid CB2 receptor. On the procedure:
Determination of Cannabinoid CB2 Receptor Agonist Activity
The cannabinoid CB2 receptor agonist activity of the compounds of formula (I) was determined in accordance with the following experimental method.
Yeast (Saccharomyces cerevisiae) cells expressing the human cannabinoid CB2 receptor were generated by integration of an expression cassette into the ura3 chromosomal locus of yeast strain MMY23. This cassette consisted of DNA sequence encoding the human CB2 receptor flanked by the yeast GPD promoter to the 5′ end of CB2 and a yeast transcriptional terminator sequence to the 3′ end of CB2. MMY23 expresses a yeast/mammalian chimeric G-protein alpha subunit in which the C-terminal 5 amino acids of Gpa1 are replaced with the C-terminal 5 amino acids of human Gαi3 (as described in Brown et aL (2000), Yeast 16:11-22). Cells were grown at 30° C. in liquid Synthetic Complete (SC) yeast media (Guthrie and Fink (1991), Methods in Enzymology, Vol. 194) lacking uracil, tryptophan, adenine and leucine to late logarithmic phase (approximately 6 OD600/ml).
Agonists were prepared as 10 mM stocks in DMSO. […] Agonist solutions in DMSO (1% final assay volume) were transferred into black, clear bottom, microtitre plates from NUNC (96- or 384-well). […] This mixture (50 ul per well for 384-well plates, 200 ul per well for 96-well plates) was added to agonist in the assay plates (Multidrop 384, Labsystems). After incubation at 30° C. for 24 hours, fluorescence resulting from degradation of FDGlu to fluorescein due to exoglucanase, an endogenous yeast enzyme produced during agonist-stimulated cell growth, was determined using a Spectrofluor microtitre plate reader (Tecan; excitation wavelength: 485 nm; emission wavelength: 535 nm). Fluorescence was plotted against compound concentration and iteratively curve fitted using a four parameter fit to generate a concentration effect value. […] Equieffective molar ratio (EMR) values were calculated from the equation EMR=EC50 [compound X]/EC50 [HU210]
Where EC50 [compound X] is the EC50 of compound X and EC50 [HU210] is the EC50 of HU210.

The mark [1] stands for this setting: agonist activity, yeast cells, 24 hours at 30° C., read-out: EC50 at the cloned human cannabinoid CB2 receptor.

T1 sequence (P34972 whole entry): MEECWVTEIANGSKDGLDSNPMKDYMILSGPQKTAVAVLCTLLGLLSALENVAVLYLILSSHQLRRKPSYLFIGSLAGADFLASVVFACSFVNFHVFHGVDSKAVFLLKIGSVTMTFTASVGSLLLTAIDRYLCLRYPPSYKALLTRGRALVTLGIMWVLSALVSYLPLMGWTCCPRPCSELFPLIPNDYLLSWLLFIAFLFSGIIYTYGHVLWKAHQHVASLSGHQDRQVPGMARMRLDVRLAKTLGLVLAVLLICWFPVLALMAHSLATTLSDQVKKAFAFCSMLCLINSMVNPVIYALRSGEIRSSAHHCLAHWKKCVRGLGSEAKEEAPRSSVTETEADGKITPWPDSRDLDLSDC

Take `O=C(NCc1ccncc1)c1cnc(Nc2cccc(Cl)c2)cc1C(F)(F)F` [Example 1, 2-(3-Chlorophenylamino)-4-trifluoromethylpyridine-5-carboxylic acid (pyridin-4-ylmethyl) amide]: the EC50 (in general, the concentration at which the effect is half-maximal) was less than 300 nM and the Emax – broadly, the greatest response seen or fitted, relative to the assay's reference – was more than 50%. With `O=C(NCc1ccccc1)c1cnc(Nc2cccc(Cl)c2)cc1C(F)(F)F` [Example 2, 2-(3-Chlorophenylamino)-4-trifluoromethylpyridine-5-carboxylic acid benzylamide], the EC50 is less than 300 nM and the Emax is more than 50%. Take `CC(C)c1cc(Nc2cccc(Cl)c2)ncc1C(=O)NCc1ccc(F)cc1` [Example 3, 6-(3-Chlorophenylamino)-N-(4-fluorobenzyl)-4-isopropyl-nicotinamide]: the Emax is more than 50%. Regarding `CC(C)c1cc(Nc2cccc(Cl)c2)ncc1C(=O)NCc1ccccc1` [Example 4, N-Benzyl-6-(3-chloro-phenylamino)-4-isopropyl-nicotinamide], the EC50 is less than 300 nM and the Emax is more than 50%. The like results for `CC(C)c1cc(Nc2cccc(Cl)c2)ncc1C(=O)NCc1ccc(C#N)cc1` [Example 5, 6-(3-Chloro-phenylamino)-N-(4-cyano-benzyl)-4-isopropyl-nicotinamide] were, in that order, 300 to 1000 nM and more than 50%. The like results for `COc1ccc(CNC(=O)c2cnc(Nc3cccc(Cl)c3)cc2C(C)C)cc1` [Example 6, 6-(3-Chloro-phenylamino)-4-isopropyl-N-(4-methoxy-benzyl)-nicotinamide] were, in that order, 300 to 1000 nM and more than 50%. With `CC(C)c1cc(Nc2cccc(Cl)c2)ncc1C(=O)NCc1ccc(F)c(F)c1` [Example 7, 6-(3-Chloro-phenylamino)-N-(3,4-difluoro-benzyl)-4-isopropyl-nicotinamide], the EC50 is 300 to 1000 nM and the Emax was more than 50%. For `CC(C)c1cc(Nc2cccc(Cl)c2)ncc1C(=O)NCc1ccc(C(N)=O)cc1` [Example 8, N-(4-Carbamoyl-benzyl)-6-(3-chloro-phenylamino)-4-isopropyl-nicotinamide], under setting [1], the concentration giving a half-maximal response (EC50) was 300 to 1000 nM. As to `CC(C)c1cc(Nc2cccc(C(F)(F)F)c2)ncc1C(=O)NCc1ccc(F)cc1` [Example 14, N-(4-Fluoro-benzyl)-4-isopropyl-6-(3-trifluoromethyl-phenylamino)-nicotinamide], the EC50 was in the range of 300 to 1000 nM and the maximum response (Emax) is more than 50%. As to `CC(C)c1cc(Nc2ccc(F)c(Cl)c2)ncc1C(=O)NCc1ccc(F)cc1` [Example 15, 6-(3-Chloro-4-fluoro-phenylamino)-N-(4-fluoro-benzyl)-4-isopropyl-nicotinamide], the EC50 under setting [1] was less than 300 nM. As to `Cc1cccc(Nc2cc(C(C)C)c(C(=O)NCc3ccc(F)cc3)cn2)c1C#N` [Example 16, 6-(2-Cyano-3-methyl-phenylamino)-N-(4-fluoro-benzyl)-4-isopropyl-nicotinamide], the EC50 lay within 300 to 1000 nM and the maximal effect (Emax) was more than 50%. Turning to `CC(C)c1cc(Nc2cccc(F)c2)ncc1C(=O)NCc1ccc(F)cc1` [Example 17, N-(4-Fluoro-benzyl)-6-(3-fluoro-phenylamino)-4-isopropyl-nicotinamide], the EC50 was less than 300 nM and the maximum response (Emax) was more than 50%.

Turning to `CC(C)c1cc(Nc2ccc(C#N)cc2)ncc1C(=O)NCc1ccc(F)cc1` [Example 18, 6-(4-Cyano-phenylamino)-N-(4-fluoro-benzyl)-4-isopropyl-nicotinamide], under setting [1], the EC50 is less than 300 nM. The same measure, in the same setting: next, `CC(C)c1cc(Nc2cccc(C#N)c2)ncc1C(=O)NCc1ccc(F)cc1` [Example 19, 6-(3-Cyano-phenylamino)-N-(4-fluoro-benzyl)-4-isopropyl-nicotinamide]: less than 300 nM.

In the case of `CC(C)c1cc(Nc2ccc(Cl)cc2F)ncc1C(=O)NCc1ccc(F)cc1` [Example 20, 6-(4-Chloro-2-fluoro-phenylamino)-N-(4-fluoro-benzyl)-4-isopropyl-nicotinamide], the 50% effective concentration (EC50) was less than 300 nM and the maximum response (Emax) is more than 50%. `CC(C)c1cc(Nc2ccc(Br)cc2Cl)ncc1C(=O)NCc1ccc(F)cc1` [Example 21, 6-(4-Bromo-2-chloro-phenylamino)-N-(4-fluoro-benzyl)-4-isopropyl-nicotinamide]: the EC50 is less than 300 nM and the maximal response (Emax) is more than 50%. The like results for `CC(C)c1cc(Nc2ccc(Cl)cc2Cl)ncc1C(=O)NCc1ccc(F)cc1` [Example 22, 6-(2,4-Dichloro-phenylamino)-N-(4-fluoro-benzyl)-4-isopropyl-nicotinamide] were, in that order, less than 300 nM and more than 50%. For the molecule `CC(C)c1cc(Nc2ccc(C#N)c(Cl)c2)ncc1C(=O)NCc1ccc(F)cc1` [Example 23, 6-(3-Chloro-4-cyano-phenylamino)-N-(4-fluoro-benzyl)-4-isopropyl-nicotinamide], the half-maximal effective concentration (EC50) is less than 300 nM and the maximum response (Emax) is more than 50%. With `CC(C)c1cc(Nc2ccc(Br)c(F)c2)ncc1C(=O)NCc1ccc(F)cc1` [Example 24, 6-(4-Bromo-3-fluoro-fluoro-benzyl)-4-phenylamino)-N-(4-isopropyl-nicotinamide], the EC50 under setting [1] was less than 300 nM. `CC(C)c1cc(Nc2cccc(OC(F)(F)F)c2)ncc1C(=O)NCc1ccc(F)cc1` [Example 25, N-(4-Fluoro-benzyl)-4-isopropyl-6-(3-trifluoromethoxy-phenylamino)-nicotinamide]: the EC50 is 300 to 1000 nM and the maximal effect (Emax) was more than 50%.

For `CC(C)c1cc(Nc2cccc(Cl)c2F)ncc1C(=O)NCc1ccc(F)cc1` [Example 26, 6-(3-Chloro-2-fluoro-phenylamino)-N-(4-fluoro-benzyl)-4-isopropyl-nicotinamide], the EC50 is 300 to 1000 nM and the Emax is more than 50%.

As to `Cc1c(Br)cccc1Nc1cc(C(C)C)c(C(=O)NCc2ccc(F)cc2)cn1` [Example 27, 6-(3-Bromo-2-methyl-phenylamino)-N-(4-fluoro-benzyl)-4-isopropyl-nicotinamide], the concentration for a half-maximal effect (EC50) was 300 to 1000 nM and the Emax was more than 50%. Consider `Cc1c(Cl)cccc1Nc1cc(C(C)C)c(C(=O)NCc2ccc(F)cc2)cn1` [Example 28, 6-(3-Chloro-2-methyl-phenylamino)-N-(4-fluoro-benzyl)-4-isopropyl-nicotinamide], for which the EC50 lay within 300 to 1000 nM and the Emax was more than 50%. The like results for `Cc1cccc(Nc2cc(C(C)C)c(C(=O)NCc3ccc(F)cc3)cn2)c1` [Example 29, N-(4-Fluoro-benzyl)-4-isopropyl-6-m-tolylamino-nicotinamide] were, in that order, 300 to 1000 nM and more than 50%.

Consider `COc1cccc(Nc2cc(C(C)C)c(C(=O)NCc3ccc(F)cc3)cn2)c1` [Example 30], for which the EC50 is 300 to 1000 nM and the Emax is more than 50%. On to `CC(C)c1cc(Nc2ccc(Br)cc2F)ncc1C(=O)NCc1ccc(F)cc1` [Example 31, 6-(4-Bromo-2-fluoro-phenylamino)-N-(4-fluoro-benzyl)-4-isopropyl-nicotinamide], for which, under setting [1], the EC50 was 300 to 1000 nM.

Take `CC(C)c1cc(Nc2ccc(Cl)c(Cl)c2)ncc1C(=O)NCc1ccc(F)cc1` [Example 32, 6-(3,4-Dichloro-phenylamino)-N-(4-fluoro-benzyl)-4-isopropyl-nicotinamide]: the concentration giving a half-maximal response (EC50) was in the range of 300 to 1000 nM and the Emax was more than 50%. As to `O=C(NCc1ccc(F)cc1)c1cnc(Nc2cccc(Cl)c2)cc1C(F)(F)F` [Example 44, N-(4-Fluoro-benzyl)-6-(3-chloro-phenylamino)-4-trifluoromethyl-nicotinamide], the EC50 is less than 300 nM and the Emax was more than 50%.

On to `O=C(NCc1ccnc(F)c1)c1cnc(Nc2cccc(Cl)c2)cc1C(F)(F)F` [Example 45, N-(2-Fluoro-pyridin-4-ylmethyl)-6-(3-chloro-phenylamino)-4-trifluoromethyl-nicotinamide], for which the concentration giving a half-maximal response (EC50) was less than 300 nM and the maximal effect (Emax) was more than 50%. With `O=C(NCc1ccc(F)cc1)c1cnc(Nc2cccc(Br)c2)cc1C(F)(F)F` [Example 46, N-(4-Fluoro-benzyl)-6-(3-bromo-phenylamino)-4-trifluoromethyl-nicotinamide], the Emax is more than 50%. For `O=C(NCc1ccc(F)cc1)c1cnc(Nc2cccc(F)c2)cc1C(F)(F)F` [Example 49, N-(4-Fluoro-benzyl)-6-(3-fluoro-phenylamino)-4-trifluoromethyl-nicotinamide], the concentration giving a half-maximal response (EC50) was less than 300 nM and the Emax was more than 50%. The like results for `O=C(NCc1ccnc(F)c1)c1cnc(Nc2cccc(Cl)c2Cl)cc1C(F)(F)F` [Example 50, N-(2-Fluoro-pyridin-4-ylmethyl)-6-(2,3-dichloro-phenylamino)-4-trifluoromethyl-nicotinamide] were, in that order, less than 300 nM and more than 50%.
